In paper PMC9829398 (Plant Biotechnology Journal, 2022):

How the values were obtained:
[1] = target: EGFR‐associated tyrosine kinase; parameters: method as in Hsu et al., [1991]; settings: ref Hsu et al., [1991]; cited from earlier work
[2] = tested on: FER cytoplasmic domain (FER‐CD); assay: FER-CD kinase activity (autophosphorylation), high-throughput screening, Kinase-Lumi luminescent ATP consumption; assay type: biochemical, Arabidopsis thaliana; settings: in vitro autophosphorylation
tobacco = assay: Growth of tobacco (shoot and root fresh weight, Day 25); settings: 5 μM irrigated twice
THE1‐CD = assay: THE1-CD kinase activity (autophosphorylation); assay type: biochemical, Arabidopsis thaliana; settings: 5 μM
CERK1 = assay: CERK1-CD kinase activity; assay type: biochemical, Arabidopsis
Excerpt: Fig. S10. […] (a) Effects of FER inhibitors on the kinase activity of the Arabidopsis receptor kinase PEPR1 and CERK1 cytoplasmic domains (CDs). […] AT1G73080. […] AT3G21630. DMSO (0.05%; v/v) was used as a negative control. The data are shown as the means ± SDs (n = 4). The assay was repeated three times with similar results. ***, […]) Protein purification of PEPR1-CD and CERK1-CD. […] In (c and d), the data are presented as the means ± SDs of three biological replicates.

Aurora C = settings: read-out: IC50 for Aurora C; ref D'Alise et al., [2008]; cited from earlier work
Aurora B = settings: read-out: IC50 for Aurora B; ref D'Alise et al., [2008]; cited from earlier work
Aurora A = settings: read-out: IC50 for Aurora A; ref D'Alise et al., [2008]; cited from earlier work

| SMILES | IC50 for EGFR-associated tyrosine kinase [1] | Effect on FER kinase activity [2] | Growth (biomass) of tobacco shoots and roots (tobacco) | Inhibition rate of THE1-CD kinase activity (THE1‐CD) | Effect on CERK1 kinase activity (CERK1) | IC50 (Aurora C) [nM] | IC50 (Aurora B) [nM] | IC50 (Aurora A) [nM] |
| --- | --- | --- | --- | --- | --- | --- | --- | --- |
| O=C(O)c1cc(N(Cc2ccccc2O)Cc2cc(O)ccc2O)ccc1O [Lavendustin A] | Lavendustin A (RG‐14355), isolated from Streptomyces Griseolavendus, is a potent, specific and ATP‐competitive inhibitor of tyrosine kinase, with an IC50 of 11 ng/mL for EGFR‐associated tyrosine kinase (Hsu et al., [1991]) | inhibited the kinase activity of FER | significantly improved the growth of tobacco shoots and roots | lower than 55% | did not affect the kinase activity |  |  |  |
| c1nc2nc(Nc3ccc(N4CCOCC4)cc3)nc(NC3CCCCC3)c2[nH]1 [Reversine] |  | inhibited the kinase activity of FER | did not observably affect the biomass | lower than 55% | did not affect the kinase activity | […] | […] | […] |
